Source: patent US20230033285A1, “Protease Inhibitors for Treatment of Coronavirus Infections” (The Scripps Research Institute, priority 2021, published 2023)

system: SARS-CoV-2; experiment: microbe, parasite or virus in culture; type: cell-based; conditions: Severe acute respiratory syndrome coronavirus 2, HeLa-ACE2, 24 h, read-out: EC50, μM (Hela)

Structure (SMILES)	EC50
CC(C)(C)[C@H](NC(=O)C(F)(F)F)C(=O)N1C[C@H]2[C@@H]([C@H]1C(=O)N[C@H](C=O)C[C@@H]1CCCNC1=O)C2(C)C [Compound 132, (1R,2S,5S)-3-((S)-3,3-dimethyl-2-(2,2,2-trifluoroacetamido)butanoyl)-6,6-dimethyl-N-((S)-1-oxo-3-((S)-2-oxopiperidin-3-yl)propan-2-yl)-3-azabicyclo[3.1.0]hexane-2-carboxamide]	0.5 to 1 µM

same assay, conditions: Severe acute respiratory syndrome coronavirus 2; HeLa-ACE2 cells infected with SARS-CoV-2, 24 h, immunofluorescence of infected cells; read-out: EC50, μM (Hela)

Structure (SMILES)	EC50
CC(=O)NC(CC(C)C(F)(F)F)C(=O)N1C[C@H]2[C@@H]([C@H]1C(=O)N[C@H](C#N)C[C@@H]1CCCNC1=O)C2(C)C (stereo partly drawn) [Compound 131, (1R,2S,5S)-3-(2-acetamido-5,5,5-trifluoro-4-methylpentanoyl)-N-((S)-1-cyano-2-((S)-2-oxopiperidin-3-yl)ethyl)-6,6-dimethyl-3-azabicyclo[3.1.0]hexane-2-carboxamide]	0.5 to 1 µM
CC(C)(C)C[C@H](NC(=O)C(=O)Nc1ccccc1C(F)(F)F)C(=O)N[C@H](C[C@@H]1CCCNC1=O)C(=O)CO [Compound 133, N^1-((S)-1-(((R)-4-hydroxy-3-oxo-1-((S)-2-oxopiperidin-3-yl)butan-2-yl)amino)-4,4-dimethyl-1-oxopentan-2-yl)-N^2-(2-(trifluoromethyl)phenyl)oxalamide]	> 1 µM
CC(C)C[C@@H](O)C(=O)N[C@@H](Cc1cccc(F)c1)C(=O)N[C@@H](C[C@@H]1CCCNC1=O)C(=O)CO [Compound 134, (R)-N-((S)-3-(3-fluorophenyl)-1-(((S)-4-hydroxy-3-oxo-1-((S)-2-oxopiperidin-3-yl)butan-2-yl)amino)-1-oxopropan-2-yl)-2-hydroxy-4-methylpentanamide]	> 1 µM
CC(C)C[C@H](NC(=O)C(=O)NC12CCC(F)(CC1)CC2)C(=O)N[C@@H](C[C@@H]1CCCNC1=O)C(=O)CO [Compound 135, N^1-(4-fluorobicyclo[2.2.2]octan-1-yl)-N^2-((S)-1-(((S)-4-hydroxy-3-oxo-1-((S)-2-oxopiperidin-3-yl)butan-2-yl)amino)-4-methyl-1-oxopentan-2-yl)oxalamide]	> 1 µM
CC(C)CCC(=O)N[C@@H](CC(C)(C)C)C(=O)N[C@H](C#N)C[C@@H]1CCCNC1=O [Compound 136, (S)-N-((S)-1-cyano-2-((S)-2-oxopiperidin-3-yl)ethyl)-4,4-dimethyl-2-(4-methylpentanamido)pentanamide]	> 1 µM
CCCCCCCCCCCCCCC(=O)OCC(=O)[C@H](C[C@@H]1CCNC1=O)NC(=O)[C@H](CC(C)C)NC(=O)c1cc2c(OC)cccc2[nH]1 [Compound 137, (S)-3-((S)-2-(4-methoxy-1H-indole-2-carboxamido)-4-methylpentanamido)-2-oxo-4-((S)-2-oxopyrrolidin-3-yl)butyl pentadecanoate]	0.2 to 0.5 µM
CC(C)C[C@H](NC(=O)C(=O)Nc1ccccc1F)C(=O)N[C@@H](C[C@@H]1CCCNC1=O)C(=O)COC(=O)c1ccccc1C#N [Compound 138, (S)-3-((S)-2-(2-((2-fluorophenyl)amino)-2-oxoacetamido)-4-methylpentanamido)-2-oxo-4-((S)-2-oxopiperidin-3-yl)butyl 2-cyanobenzoate]	0.05 to 0.2 µM
